{
  "source": "patent US20210277102A1",
  "about": "“COMPOSITIONS AND METHODS FOR TREATING A TUMOR SUPPRESSOR DEFICIENT CANCER” (BETH ISRAEL DEACONESS MEDICAL CENTER, INC., priority 2016, published 2021)",
  "tested_on": "Pten^pc−/−; Pml^pc−/− prostate tumors",
  "assay": "In vivo CXCR2 antagonist treatment of Pten^pc−/−; Pml^pc−/− mice (MRI, flow cytometry)",
  "parameters": "species or system mouse",
  "details": "for tumor growth (tumor volume by MRI): Pml^pc−/− mice, 5 mg/kg intraperitoneal daily for 14 days, vs vehicle, 5 mg/kg",
  "method": "Mice were allocated at random to experimental groups and studies were performed in an unblended manner. For treatment with the CXCR2 antagonist, SB225002 (Cayman Chemical #13336) was dissolved in DMSO (10 mg/ml) and diluted in vehicle (0.9% NaCl, 0.3% Tween 80) for in vivo administration. Mice (4 months of age) were treated daily for 10 days by intraperitoneal injection (5 mg/kg) and prostate tumor tissue (anterior lobes) was subjected to Flow Cytometry and histological analysis. For MRI analysis, mice (4 months of age) were treated daily for 21 days (Pten^pc-/-; Zbtb7a^pc-/-), for 14 days (Pten^pc-/-; Trp53^pc-/-) or for 14 days (Pten^pc-/-; Pml^pc-/-) by intraperitoneal injection (5 mg/kg). For depletion of Gr-1+/CD11b+ cells, Ly6G-depletion antibody (1A8, BioXcell) and control Rat IgG2a antibody (BioXcell) were diluted in phosphate-buffered saline (PBS) for in vivo administration. Mice (4 months of age) were treated every other day for 10 days by intraperitoneal injection (200-300 μg/mouse). InVivoMAb anti-mouse Ly6G/Ly6C (Gr-1) antibody, clone RB6-8C5 (BE0075, BioXcell), and control Rat IgG2b antibody (BE0090, BioXcell) were diluted in PBS and Pten^pc-/-; Trp53^pc-/- mice were treated every other day for 14 days by intraperitoneal injection (200 μg/mouse). For neutralization of CXCL5, anti-Mouse CXCL5 antibody (Leinco Technologies) and control Rat IgG2a antibody (BioXcell) were diluted in PBS and injected every other day for 21 days by intraperitoneal injection (20 μg/mouse). Tumor volume quantification was performed by using VivoQuant and Image J software. All mouse prostate MRI imaging analysis was performed at Small Animal Imaging Core at BIDMC and acquired on an […] Model M2 1T tabletop scanner. For Flow Cytometry, spleen and lymph node single cell suspensions were prepared by mashing the tissue in 2% FBS/PBS. […] All staining mixtures were analyzed on a BD LSR II flow cytometer (Becton Dickinson). Resulting profiles were further processed and analyzed using the FlowJo 8.7 software.",
  "data": [
    {"smiles": "O=C(Nc1ccc([N+](=O)[O-])cc1O)Nc1ccccc1Br", "note": "[SB225002]", "values": [
      {"measurement": "tumor growth (tumor volume by MRI)", "result": "did not show any significant response"},
      {"measurement": "tumor growth (tumor volume by MRI)", "setting": "listed as CXCR2i", "result": "did not respond"},
      {"measurement": "intra-tumoral Gr-1+/CD11b+ cells (flow cytometry)", "setting": "Pml^pc−/− prostate tumors after treatment", "result": "decrease of Gr-1+/CD11b+ cells"}
    ]}
  ]
}
